The source of these data is patent US12291508B2, “Hydrazide containing nuclear transport modulators and uses thereof” (Karyopharm Therapeutics Inc., priority 2011, dated 2025).

Structures can show the parent of a compound that is named as a salt. Where two headings read alike, the source gives them in different places.

In assay [1] the test system is MDA-MB-468 TNBC cells. Nature of the assay: Apoptosis marker immunoblot, MDA-MB-468. The format is cell-based. The following applies: MDA-MB-468, 0 to 10 μM, 24 hours. On the procedure:
(§1) MDA-MB-468 TNBC, DU4475 and HS578T TNBC cells were exposed to concentrations of Compound 1-3 ranging from 0 to 10 μM for 24 hours. After 24 hours, whole protein cell extracts were run on immunoblots and were exposed to antibodies against the proteins indicated in FIGS. 2A-2C.

In assay [2] the test system is DU4475 luminal BC cells. Nature of the assay: Apoptosis marker immunoblot, DU4475. Format: cell-based. The following applies: DU4475, 0 to 10 μM, 24 hours. Here is the method: as §1
Assay [3] has as its system MDA-MB-231 cells. Put plainly: Long-term growth assay, MDA-MB-231. The format is cell-based. Particulars: MDA-MB-231, 1 μM, 10 days, crystal violet. An excerpt: At the end of the assay, media was removed from the cells and the remaining cells were stained with crystal violet.
For assay [4], the system named is DU4475. Nature of the assay: Cell proliferation assay, DU4475. The following applies: Homo sapiens, DU-4475; DU4475, type Lu, 72 h. Format: cell-based. On the procedure:
(§2) The cells were seeded at 5×10^3 to 1.5×10^4 cells (depending on cell type) in each well of a 96-well plate in 100 μL of fresh culture medium and adherent cells were allowed to attach overnight. The stock solutions of the compounds were diluted in cell culture medium to obtain eight concentrations of each drug, ranging from 1 nM to 30 μM and DMSO at less than 1% v/v was used as a negative control. The resulting drug solutions were transferred onto the cells. After 72 h of treatment, 20 μl of CellTiter 96® AQueous reagent was added into each well of the 96-well assay plates and the plate was incubated at 37° C. for 1-4 hours in a humidified, 5% CO2 atmosphere. Then the absorbance of each well was recorded at 490 nm using a 96-well plate reader. In most cases, the assay was performed in triplicate and the results were presented as half maximal inhibitory concentration (IC50).

Assay [5] deals with MDA-MB-468 triple negative breast cancer cells. Particulars: oral, day 33 post inoculation. Here is the method: MDA-MB-468 (ATCC #HTB-132)triple negative breast cancer cells were obtained from ATCC. These cells were grown in Leibovitz's L-15 medium supplemented with 10% fetal calf serum (FCS), 1% penicillin and streptomycin, and 2 mM L-glutamine. Cells were sub-cultured by dilution at a ratio of 1:3. Fifty (50) female SCID mice (Charles River Labs), aged 5 to 6 weeks, with a mean pre-treatment body weight of 19.2 grams were used. SCID mice were inoculated s.c. in the left flank with 5×10^6 MDA-MB-468 cells. When the tumors reached a mean size of between 100 and 200 mm^3, mice were randomly and prospectively divided into a vehicle control group of ten (10) mice and five treatment groups of eight (8) mice per group.
All administrations were via the oral route. Animals were fed with sterile Labdiet® 5053 (pre-sterilized) rodent chow and sterile water was provided ad libitum. Tumors were measured once every two days with micro-calipers, and tumor volume was calculated as (length×width×width)/2. All animals were weighed every day in order to assess differences in weight among treatment groups and monitor wellness of animals. […] Any animals with a tumor over 1500 mm^3 in volume were also euthanized. Survival was recorded daily. […] Statistical differences between treatment groups were determined using Mann-Whitney Rank Sum or ANOVA tests with a critical value of 0.05.

The test system of assay [6] is BT-20. Put plainly: Cell proliferation assay, BT-20. The format is cell-based. Particulars: Homo sapiens; BT-20, type BaA, 72 h. On the procedure: as §2
In assay [7] the test system is HCC-1428. Put plainly: Cell proliferation assay, HCC-1428. Format: cell-based. Particulars: Homo sapiens, HCC1428; HCC-1428, type Lu, 72 h. Here is the method: as §2
Assay [8] has as its system HCC-1569. Nature of the assay: Cell proliferation assay, HCC-1569. The format is cell-based. Particulars: Homo sapiens, HCC1569; HCC-1569, type BaA, 72 h. On the procedure:
as §2

The test system of assay [9] is MDA-MB-157. Put plainly: Cell proliferation assay, MDA-MB-157. Particulars: Homo sapiens; MDA-MB-157, type BaB, 72 h. Format: cell-based. Here is the method:
as §2

In assay [10] the test system is MDA-MB-468 TNBC Basal A cells. Put plainly: Nuclear localization of FOXO3a and IκB, MDA-MB-468. The format is cell-based. The following applies: MDA-MB-468, 1 μM, 24 hours. Here is the method:
MDA-MB-468 TNBC Basal A and BT-20 TNBC Basal B cells were exposed to DMSO or 1 μM Compound 1-3 for 24 hours and then stained for FOXO3a or IκB with or without DAPI nuclear stain. The stained cells were examined for nuclear localization.

Assay [11] concerns MDA-MB-468. Put plainly: Cell proliferation assay, MDA-MB-468. Format: cell-based. The following applies: Homo sapiens; MDA-MB-468, after 72 hours. Here is the method:
as §2

Assay [12] deals with antibody-induced male BALB/c arthritic mice. Put plainly: Monoclonal-antibody induced arthritis (CAIA). The format is in vivo. Particulars: 4, 7.5, 15 mg/kg PO, Day 4, 6, 8, 10. On the procedure: The health status of the animals was examined on arrival. Only animals in good health were acclimatized to laboratory conditions and were used in the study. Animals were provided ad libitum a commercial rodent diet and free access to drinking water, supplied to each cage via polyethylene bottles with stainless steel sipper tubes. Automatically controlled environmental conditions were set to maintain temperature at 20-24° C. with relative humidity (RH) of 30-70%, a 12:12 hour light:dark cycle and 10-30 air changes/hr in the study room Temperature, RH and light cycle were monitored daily by the control computer. Animals were given a unique animal identification number and on Day 0 of the study each animal received a tail vein injection of antibody cocktail (200 uL of 10 mg/mL). The antibody cocktail was supplied by MD Biosciences (Catalog #: CIA-MAB-50). On day 3, post the single mAb administration, all animals were subjected to LPS (200 uL of 0.5 mg/mL) administration by a single intraperitoneal (IP) injection. […]
Animals found in a moribund condition, animals with broken skin on an arthritic paw, or with a greater than a 20% decrease in body weight and animals showing severe pain and enduring signs of severe distress were humanely euthanized. Severe pain or distress was assessed on a case by case basis by experienced animal technicians. […]

On to `O=C(/C=C\n1cnc(-c2cc(C(F)(F)F)cc(C(F)(F)F)c2)n1)NNc1cnccn1` [Compound I-3, (Z)-3-(3-(3,5-bis(trifluoromethyl)phenyl)-1H-1,2,4-triazol-1-yl)-N′-(pyrazin-2-yl)acrylohydrazide], for which the “apoptosis (PARP, caspase 3, cleaved PARP, cleaved caspase 3)” value in [1] and in assay [2] was “induces apoptosis” in each case. Besides, the long-term growth entry in assay [3] was “inhibited the long-term growth”. The IC50 in assay [4] amounted to 13 nM; in assay [6], 1500 nM; in assay [7], 10400 nM; in assay [8], 960 nM; in assay [9], 1300 nM; in assay [11], 10 nM. In addition, the “inhibition of tumor growth compared with vehicle-treated animals” value is listed as “approximately 60%” in assay [5] (5 mg/kg Monday, Wednesday, Friday) and about 100% in [5] (25 mg/kg Monday, Thursday regimen). Also, in [10], the “localization of FOXO3a and IκB” value is “both FOXO3a and IκB were localized in the cell nucleus”.
Consider `O=C(/C=C\n1cnc(-c2cc(C(F)(F)F)cc(C(F)(F)F)c2)n1)NNc1ccccn1` [Compound I-4, (Z)-3-(3-(3,5-bis(trifluoromethyl)phenyl)-1H-1,2,4-triazol-1-yl)-N′-(pyridin-2-yl)acrylohydrazide hydrochloride], for which the “mean body weight (rate of weight gain)” value in assay [12] (compared to vehicle or dexamethasone) is reported as “increased the rate of weight gain”. Moreover, in [12] (compared with vehicle), the “mean total paw clinical arthritic score” value is recorded as “significantly decreased the total score”.
